By Ki is commonly meant the dissociation constant of the complex between target and ligand, obtained from inhibition or displacement.

The text below walks through data of patent US7494988B2, “Inhibitors of serine proteases, particularly hepatitis C virus NS3 protease” (Vertex Pharmaceuticals Incorporated, priority 2000, dated 2009).

This assay deals with HCV NS3 serine protease (Hepatitis C virus genotype 1a, UniProt P27958). Description: Inhibition of HCV NS3 serine protease, spectrophotometric assay (5A-pNA cleavage). In kind it is biochemical. To be noted: EDVVAbuC-p-nitroanilide (5A-pNA) substrate, 30° C., pNA release at 405 nm. As to the method:
Insofar as compounds of formula (I) are able to inhibit NS3 serine protease, they are of evident clinical utility for the treatment of viral diseases, including HCV. The compounds of this invention are tested for their ability to inhibit HCV in the following spectrophotometric assay.
The spectrophotometric assays were run in a 96-well microtiter plate at 30° C., using a SpectraMax 250 reader (Molecular Devices, Sunnyvale, Calif.) with kinetic capability. Cleavage of EDVVAbuC-p-nitroanilide (5A-pNA) substrate was performed with or without NS4A in the same buffer used for HPLC assays at 30° C., and pNA release was monitored at 405 nm. […]
Kinetic constants for the rapid equilibrium ordered bisubstrate reaction were determined from rate vs. [4A], [EDVV AbuC-pNA] data by non-linear least squares fitting to equation 1 [J. F. Morrison, Biochim. […] Kii and Kis values for peptidyl inhibitors were determined from rate vs. [inhibitor], [substrate] data and fitting to the equation for mixed inhibition: rate=Vmax[S]/{Km(1+[I]/Kis)+[S](1+[I]/Kii)} The commercial program KinetAsyst (StateCollege, Pa.) was used for both procedures. Ki values were calculated from rate vs. [inhibitor] plots by a nonlinear least squares fit of the data to the equation of Morrison for tight binding competitive inhibition [J. F. Morrison, Biochim. […]

Molecules are shown by their SMILES. Some results are limits rather than exact numbers.

Chain of HCV NS3 serine protease (P27958 1027-1657): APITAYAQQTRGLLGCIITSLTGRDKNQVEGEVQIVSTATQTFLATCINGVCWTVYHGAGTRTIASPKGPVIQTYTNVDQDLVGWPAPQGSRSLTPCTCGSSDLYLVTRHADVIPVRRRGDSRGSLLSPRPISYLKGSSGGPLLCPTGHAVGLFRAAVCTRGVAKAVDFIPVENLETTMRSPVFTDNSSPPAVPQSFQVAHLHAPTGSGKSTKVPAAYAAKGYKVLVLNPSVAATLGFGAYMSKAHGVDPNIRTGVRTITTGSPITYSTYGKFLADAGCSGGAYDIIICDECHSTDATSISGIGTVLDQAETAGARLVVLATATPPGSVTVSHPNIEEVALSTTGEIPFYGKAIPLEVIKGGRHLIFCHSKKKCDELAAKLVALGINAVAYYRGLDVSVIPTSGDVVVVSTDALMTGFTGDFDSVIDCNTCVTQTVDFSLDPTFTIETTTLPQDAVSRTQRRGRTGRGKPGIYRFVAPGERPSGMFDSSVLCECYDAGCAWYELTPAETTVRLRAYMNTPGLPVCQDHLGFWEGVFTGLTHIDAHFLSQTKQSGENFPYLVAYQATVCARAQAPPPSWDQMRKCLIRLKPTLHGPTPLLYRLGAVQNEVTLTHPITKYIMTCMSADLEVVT

As to `CCC[C@H](NC(=O)C1C[C@@H](OC(=O)N2CCc3ccccc3C2)CN1C(=O)[C@@H](NC(=O)[C@@H](NC(=O)c1cnccn1)C(C)C)C(C)C)C(=O)C(=O)N1CCC1` (some centres unmarked) [Compound 7], the Ki is less than 1000 nM.
For `CCC[C@H](NC(=O)C1C[C@@H](OC(=O)N2CCc3ccccc3C2)CN1C(=O)[C@@H](NC(=O)[C@@H](NC(=O)c1cnccn1)C(C)C)C(C)C)C(=O)C(=O)N1CC(Oc2ccccc2)C1` (some centres unmarked) [Compound 9] the value was less than 1000 nM.
